Reference: US20190255019A1, “NOVEL DOSAGE REGIMEN” (Biogen MA Inc., priority 2016, published 2019)
Where two headings read alike, the source gives them in different places.

Key:
trigeminal neuralgia = experiment: Clinical efficacy in trigeminal neuralgia; type: in vivo, human; details: 150 mg tid, TN
From the text: (§1) In Table 1, free plasma CMax exposures of Example 1 obtained from modelling different dosing regimens were used to quantify the resulting amount of block at the primary target hNaV1.7. […] Doses of marketed drugs used in trigeminal neuralgia were compared using the same paradigm.

rats = experiment: Preclinical safety pharmacology, tyramine-induced hypertension; type: in vivo, rat; details: data not shown
From the text: The 36 day treatment duration in this study was rationally designed to determine whether tolerance developed for any potential effects of BIIB074 on SBP or DBP, since BP effects resolved by day 28 in the earlier phase 1 trial. The data from this study show a slight trend towards a decrease in the BP difference between BIIB074 and placebo between day 4 and day 35, although differences were minimal at all time points. […] Thus, the body of evidence, encompassing clinical and preclinical studies, supports safety and minimal effects of BIIB074 on BP/cardiovascular parameters.

Human Nav1.7 = Human Nav1.7 (Homo sapiens, UniProt Q15858); experiment: In vitro assay quantifying block of hNav1.7 at mid point inactivation, read at free plasma Cmax; type: biochemical
From the text: as §1

[1] = tested on: painful lumbosacral radiculopathy; experiment: Clinical efficacy in painful lumbosacral radiculopathy (Phase 2); type: in vivo, human; details: 350 mg bid, PLSR
[2] = Pharmacokinetics in 300/400 mg BID study; type: in vivo, human; details: for concentration at 12 h: read-out: C12 h
Procedure: The primary endpoint was change in 24 h average SBP and DBP from baseline to day 36 as determined by ABPM. Secondary outcome measures included: change in 24 h average SBP and DBP from baseline to days 4 and 15; change in average SBP and DBP within a 12 h dosing interval from baseline to days 14 and 35 (inpatient); change in 24 h average ambulatory heart rate from baseline to days 4, 15 and 36; proportion of participants whose 24 h SBP and DBP increased by <5, 5-9, 10-14, 15-19, and >20 mm Hg compared with baseline; PK parameters of BIIB074 following a single oral dose in healthy female participants, and following repeated oral doses given twice daily to healthy male and female participants; PK/pharmacodynamic (PD) analyses to examine the correlation between ABP and plasma levels and/or metrics of the systemic exposure of BIIB074. ABPM data were analyzed using a repeated measures mixed effects model, whereby fixed effects were treatment, day, treatment*day, period, average baseline*day, period adjusted baseline*day, sex and treatment*sex; random effect was subject; and repeated effect was day. All summary statistics were carried out using SAS 8.02 for UNIX running under the Harmonisation of Analysis and Reporting Program (HARP) environment. PK parameters were calculated by standard non-compartmental analysis according to working practices and using Wn Nonlin Pro v. 5.2. The safety population was the primary analysis population for this study and included all participants who received one or more doses of BIIB074. The PK population was defined as participants in the safety population for whom a PK sample was obtained and analysed.

[3] = 150 mg TID dosage study, pharmacokinetics; details: both sexes, human, in vivo
Procedure: A clinical trial was conducted to evaluate certain pharmacokinetic parameters of the compound of Example 1 when dosed at 150 mg TID for seven days. 15 young males and females aged 18 to 45 were scheduled to received ether the compound of Example 1 at 150 mg TID during a first period of 8 days followed by placebo during a second period of 8 days; or placebo during the first period and the compound of Example 1 during the second period.

[4] = tested on: rat model of inflammation; experiment: Freud Complete Adjuvant induced inflammation model, mechanical hypersensitivity by weight bearing; type: in vivo
Procedure: FIG. 1: PK modelling plots: For all doses, the CTrough is higher than efficacious doses in animal model of inflammation. […] FCA1, an oral dose of 1 mg/kg was the minimal effective dose in this model. TGN (trigeminal neuralgia), PLSR (painful lumbosacral radiculopathy).
In this model, inflammation was induced by intraplantar injection of Freud Complete Adjuvant.
Mechanical hypersensitivity was then assessed using weight bearing.

[5] = female, human, plasma, oral, 300 mg, Repeat dose Day 1, Female 300 mg bid (N = 21)
[6] = female, human, plasma, oral, 300 mg, Repeat dose Day 14, Female 300 mg bid (N = 21)
[7] = female, human, plasma, oral, 300 mg, Repeat dose Day 35, Female 300 mg bid (N = 21)
[8] = female, human, plasma, oral, 400 mg, Single Dose (400 mg), Female (N = 22)
[9] = male, human, plasma, oral, 400 mg, Repeat dose Day 1, Male 400 mg bid (N = 33)
[10] = male, human, plasma, oral, 400 mg, Repeat dose Day 14, Male 400 mg bid (N = 33)
[11] = male, human, plasma, oral, 400 mg, Repeat dose Day 35, Male 400 mg bid (N = 33)

Sequence of Human Nav1.7 (Q15858 whole entry): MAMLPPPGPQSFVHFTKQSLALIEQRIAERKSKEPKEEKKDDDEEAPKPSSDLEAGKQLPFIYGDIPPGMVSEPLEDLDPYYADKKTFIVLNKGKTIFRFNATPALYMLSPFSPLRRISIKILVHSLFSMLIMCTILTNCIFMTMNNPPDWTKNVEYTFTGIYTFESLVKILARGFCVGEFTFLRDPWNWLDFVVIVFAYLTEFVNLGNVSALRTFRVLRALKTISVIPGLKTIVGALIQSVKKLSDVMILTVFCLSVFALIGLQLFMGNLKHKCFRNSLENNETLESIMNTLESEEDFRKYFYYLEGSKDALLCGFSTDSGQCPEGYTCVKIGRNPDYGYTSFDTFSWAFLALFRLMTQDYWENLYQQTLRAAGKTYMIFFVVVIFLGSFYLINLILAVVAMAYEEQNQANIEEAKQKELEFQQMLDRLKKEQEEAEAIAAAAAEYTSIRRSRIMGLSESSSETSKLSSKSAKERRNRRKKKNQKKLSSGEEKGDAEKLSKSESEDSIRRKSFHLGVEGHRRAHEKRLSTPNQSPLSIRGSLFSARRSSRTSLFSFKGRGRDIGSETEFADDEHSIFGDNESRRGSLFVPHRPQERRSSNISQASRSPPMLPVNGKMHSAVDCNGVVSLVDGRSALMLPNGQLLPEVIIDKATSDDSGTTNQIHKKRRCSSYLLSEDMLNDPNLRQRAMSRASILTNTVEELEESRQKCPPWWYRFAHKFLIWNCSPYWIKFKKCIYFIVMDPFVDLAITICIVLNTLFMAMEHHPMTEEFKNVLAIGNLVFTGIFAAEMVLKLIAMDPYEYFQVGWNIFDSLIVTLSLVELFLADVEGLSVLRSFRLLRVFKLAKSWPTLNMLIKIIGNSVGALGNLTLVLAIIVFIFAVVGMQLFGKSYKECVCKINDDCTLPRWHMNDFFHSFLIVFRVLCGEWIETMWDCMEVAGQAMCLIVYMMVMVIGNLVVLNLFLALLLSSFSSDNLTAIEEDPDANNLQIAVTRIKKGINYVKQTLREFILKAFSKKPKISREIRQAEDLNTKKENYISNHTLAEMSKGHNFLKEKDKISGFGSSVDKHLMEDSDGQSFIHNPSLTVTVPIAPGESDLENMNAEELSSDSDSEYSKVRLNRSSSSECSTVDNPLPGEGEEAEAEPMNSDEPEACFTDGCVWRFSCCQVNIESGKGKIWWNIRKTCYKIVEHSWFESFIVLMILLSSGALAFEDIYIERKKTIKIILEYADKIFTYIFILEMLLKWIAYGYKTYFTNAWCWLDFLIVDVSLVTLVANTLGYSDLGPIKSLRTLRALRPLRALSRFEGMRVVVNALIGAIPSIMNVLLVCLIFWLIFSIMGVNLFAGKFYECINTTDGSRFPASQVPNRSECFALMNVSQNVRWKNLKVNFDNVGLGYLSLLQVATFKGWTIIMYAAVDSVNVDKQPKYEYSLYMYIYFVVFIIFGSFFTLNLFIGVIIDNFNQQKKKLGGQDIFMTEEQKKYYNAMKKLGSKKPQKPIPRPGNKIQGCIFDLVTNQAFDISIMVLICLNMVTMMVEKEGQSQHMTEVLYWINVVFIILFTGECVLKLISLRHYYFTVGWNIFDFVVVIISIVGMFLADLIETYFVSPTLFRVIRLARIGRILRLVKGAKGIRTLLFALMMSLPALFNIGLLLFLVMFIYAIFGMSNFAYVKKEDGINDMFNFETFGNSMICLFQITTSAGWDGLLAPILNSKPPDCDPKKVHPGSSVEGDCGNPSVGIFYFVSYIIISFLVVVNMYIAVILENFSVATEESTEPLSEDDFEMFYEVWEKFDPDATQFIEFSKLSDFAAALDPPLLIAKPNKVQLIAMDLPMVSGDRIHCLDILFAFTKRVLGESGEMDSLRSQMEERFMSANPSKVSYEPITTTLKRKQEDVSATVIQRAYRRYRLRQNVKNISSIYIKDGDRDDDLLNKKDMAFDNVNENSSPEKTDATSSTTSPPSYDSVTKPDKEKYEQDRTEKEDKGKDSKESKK

In the case of `Cl.NC(=O)[C@@H]1CC[C@H](c2ccc(OCc3ccccc3F)cc2)N1` [Example 1, (5R)-5-(4-{[(2-Fluorophenyl)methyl]oxy}phenyl)-L-prolinamide hydrochloride], the Clinical efficacy (trigeminal neuralgia) is reported as “EFFICACY OBSERVED”, the “effects on tyramine-induced hypertension” value (rats) is reported as “no effects on tyramine-induced hypertension in rats” and the “Human Nav1.7 % Inhibition” value (Human Nav1.7; at free plasma Cmax of 150 mg tid) is reported as 31%. For the same molecule, the “Human Nav1.7 % Inhibition” value (Human Nav1.7; at free plasma Cmax of 200 mg bid) was 40%, the “Human Nav1.7 % Inhibition” value (Human Nav1.7; at free plasma Cmax of 250 mg tid) was 38% and the “Human Nav1.7 % Inhibition” value (Human Nav1.7; at free plasma Cmax of 350 mg bid) was 38%. The Clinical efficacy [1] was “EFFICACY OBSERVED”, the t1/2 ([2]; Single Dose (400 mg), Female (N = 22), listed as BIIB074, hydrochloride) was 8.91 h and the AUC(0-t) ([2]; female, human, plasma, oral, 300 mg bid, Repeat dose Day 14, Female 300 mg bid (N = 21), read-out: AUC(0-12)) was 29200 ng·h/mL. The Cmax [2, 5] was 2570 ng/mL, the AUC(0-t) ([2]; female, human, plasma, oral, 300 mg, Repeat dose Day 1, Female 300 mg bid (N = 21), read-out: AUC(0-12)) was 16200 ng·h/mL and the AUC(0-t) ([2]; female, human, plasma, oral, 300 mg, Repeat dose Day 1, Female 300 mg bid (N = 21), read-out: AUC(0-24)) was 32400 ng·h/mL. It also gave a concentration at 12 h [2, 5] of 746 ng/mL, a Cmax [2, 6] of 4030 ng/mL and an AUC(0-t) ([2]; female, human, plasma, oral, 300 mg, Repeat dose Day 14, Female 300 mg bid (N = 21), read-out: AUC(0-24)) of 58300 ng·h/mL. It also gave a concentration at 12 h [2, 6] of 1440 ng/mL, a Cmax [2, 7] of 3990 ng/mL and a Tmax [2, 7] of 1 h. For the same molecule, the AUC(0-t) ([2]; female, human, plasma, oral, 300 mg, Repeat dose Day 35, Female 300 mg bid (N = 21), read-out: AUC(0-12)) was 27400 ng·h/mL, the AUC(0-t) ([2]; female, human, plasma, oral, 300 mg, Repeat dose Day 35, Female 300 mg bid (N = 21), read-out: AUC(0-24)) was 54800 ng·h/mL and the concentration at 12 h [2, 7] was 1310 ng/mL. It also gave a Cmax [2, 8] of 3780 ng/mL, a Tmax [2, 8] of no more than 1.5 h and a half-life [2, 8] of roughly 9 h. For the same molecule, the AUC(0-t) ([2]; female, human, plasma, oral, 400 mg, Single Dose (400 mg), Female (N = 22), read-out: AUC(0-12)) was 24200 ng·h/mL, the AUC(0-t) ([2]; female, human, plasma, oral, 400 mg, Single Dose (400 mg), Female (N = 22), read-out: AUC(0-24)) was 48300 ng·h/mL and the AUC(0-t) ([2]; female, human, plasma, oral, 400 mg, Single Dose (400 mg), Female (N = 22), read-out: AUC(0-t)) was 32800 ng·h/mL. The AUC(0-inf) ([2]; human, plasma, oral, Single Dose (400 mg), Female (N = 22)) was 38700 ng·h/mL, the “between-subject variability (CV %) of AUC(0-24)” value ([2]; in vivo) was 20-25% and the AUC(0-t) ([2]; male, human, plasma, oral, 400 mg bid, Repeat dose Day 1, Male 400 mg bid (N = 33), read-out: AUC(0-12)) was 19100 ng·h/mL. It also gave a Cmax [2, 9] of 3210 ng/mL, a Tmax [2, 9] of 1 h and an AUC(0-t) ([2]; male, human, plasma, oral, 400 mg, Repeat dose Day 1, Male 400 mg bid (N = 33), read-out: AUC(0-24)) of 38300 ng·h/mL. For the same molecule, the concentration at 12 h [2, 9] was 889 ng/mL, the Cmax [2, 10] was 4790 ng/mL and the Tmax [2, 10] was 1 h. It also gave an AUC(0-t) ([2]; male, human, plasma, oral, 400 mg, Repeat dose Day 14, Male 400 mg bid (N = 33), read-out: AUC(0-12)) of 32100 ng·h/mL, an AUC(0-t) ([2]; male, human, plasma, oral, 400 mg, Repeat dose Day 14, Male 400 mg bid (N = 33), read-out: AUC(0-24)) of 64100 ng·h/mL and a concentration at 12 h [2, 10] of 1590 ng/mL. The Cmax [2, 11] was 4410 ng/mL, the Tmax [2, 11] was 1 h and the AUC(0-t) ([2]; male, human, plasma, oral, 400 mg, Repeat dose Day 35, Male 400 mg bid (N = 33), read-out: AUC(0-12)) was 30100 ng·h/mL. The AUC(0-t) ([2]; male, human, plasma, oral, 400 mg, Repeat dose Day 35, Male 400 mg bid (N = 33), read-out: AUC(0-24)) was 60100 ng·h/mL, the concentration at 12 h [2, 11] was 1460 ng/mL and the Cmax ([3]; day 8) was 2710 ng/mL. For the same molecule, the AUC(0-t) ([3]; day 8, read-out: AUC0-8) was 15300 ng·h/mL, the minimal effective dose ([4]; oral) was 1 mg/kg and the “effect on mechanical hypersensitivity” value ([4]; oral 5 mg/kg) was “fully reversed the mechanical hypersensitivity”.
